Where two headings read alike, the source gives them in different places.

Experiment [1] relates to HCT-116 human colorectal carcinoma cells. Put plainly: Cell-proliferation assay using Alamar Blue dye.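 Note: cells exposed to compound for about 4 days, then Alamar Blue added and dye fluorescence read after about 4 h, compared with medium-only control wells.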 The class given is cell-based. The settings on record: Homo sapiens. In general terms: Resazurin is reduced to fluorescent resorufin, in cell work by metabolically active cells.
The target in the next experiment is recombinant human PIM1 (Homo sapiens (Human), UniProt P11309). Description: PIM-1 kinase activity in cell-free in vitro assay. The class given is biochemical. The settings on record: for inhibition at 0.5 µM: 500 nM compound, read-out: PIM-1: % inh 500 nM.
Sequence of recombinant human PIM1 (P11309 whole entry): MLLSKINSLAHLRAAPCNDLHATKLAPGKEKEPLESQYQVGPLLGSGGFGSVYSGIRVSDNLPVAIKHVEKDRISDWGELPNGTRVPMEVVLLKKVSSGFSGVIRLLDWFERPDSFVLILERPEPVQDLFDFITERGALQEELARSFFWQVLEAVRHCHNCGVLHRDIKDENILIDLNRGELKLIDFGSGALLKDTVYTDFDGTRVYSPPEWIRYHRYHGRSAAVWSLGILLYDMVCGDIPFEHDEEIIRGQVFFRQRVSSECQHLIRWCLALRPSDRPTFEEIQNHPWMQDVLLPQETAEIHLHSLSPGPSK
Experiment [2] relates to K-562. Description: Cell proliferation modulatory activity, K-562. The class given is cell-based. The note with it: Homo sapiens, K562.
Experiment [3] relates to MV-4-11. Put plainly: Cell proliferation modulatory activity, MV-4-11. The class given is cell-based. The note with it: Homo sapiens, MV4-11.
Experiment [4] concerns MV-4-11. Description: Cell proliferation modulatory activity, MV-4-11. The class given is cell-based. The settings on record: Homo sapiens, MV4-11. This is another data set of the same source.
In experiment [5] the test system is K-562. Put plainly: Cell proliferation modulatory activity, K-562. The class given is cell-based. The settings on record: Homo sapiens, K562. The source holds these as a separate data set.
The next experiment addresses Flt3 (Homo sapiens (Human), UniProt P36888). Description: FLT-3 kinase activity in cell free in vitro assay. The settings on record: cell-free assay; read-out: FLT-3. The class given is biochemical.
The test system of another experiment is Jurkat. Put plainly: Cell proliferation modulatory activity, Jurkat. The class given is cell-based. The note with it: Homo sapiens.
The target of another experiment is recombinant human CK2 (Homo sapiens (Human), UniProt P68400). Description: CK2 assay (cell-free, 33P-ATP filter plate). The class given is biochemical. The settings on record: cell-free assay; for IC50: 15 um ATP, read-out: CK2 (15 um ATP) IC50.
Sequence of recombinant human CK2 (P68400 whole entry): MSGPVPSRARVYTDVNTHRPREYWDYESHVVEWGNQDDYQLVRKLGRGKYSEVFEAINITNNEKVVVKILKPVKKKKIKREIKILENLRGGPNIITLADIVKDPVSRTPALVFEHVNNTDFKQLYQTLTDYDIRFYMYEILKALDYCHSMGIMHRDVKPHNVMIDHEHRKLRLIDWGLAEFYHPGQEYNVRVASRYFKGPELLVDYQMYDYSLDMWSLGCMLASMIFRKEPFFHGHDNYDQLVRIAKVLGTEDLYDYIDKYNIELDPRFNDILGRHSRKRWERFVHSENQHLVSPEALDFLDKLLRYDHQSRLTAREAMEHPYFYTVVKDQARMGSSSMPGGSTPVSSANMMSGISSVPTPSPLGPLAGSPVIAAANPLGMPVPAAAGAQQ
Sequence of recombinant human CK2 (P67870 whole entry partner): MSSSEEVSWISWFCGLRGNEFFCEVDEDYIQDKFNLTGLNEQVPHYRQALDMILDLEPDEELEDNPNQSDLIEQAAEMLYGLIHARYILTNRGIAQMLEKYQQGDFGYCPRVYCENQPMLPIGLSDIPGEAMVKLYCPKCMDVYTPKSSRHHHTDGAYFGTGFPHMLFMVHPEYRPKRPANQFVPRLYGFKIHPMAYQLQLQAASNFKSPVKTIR
The mark [6] stands for this setting: HCT-116, read-out: HCT-116 (uM), cell proliferation modulatory activity, HCT-116, second column.
The mark [7] stands for this setting: HCT-116, HCT-116, second HCT-116 column (c8), read-out: HCT-116 (uM), cell proliferation modulatory activity.

Sequence of Flt3 (P36888 27-993): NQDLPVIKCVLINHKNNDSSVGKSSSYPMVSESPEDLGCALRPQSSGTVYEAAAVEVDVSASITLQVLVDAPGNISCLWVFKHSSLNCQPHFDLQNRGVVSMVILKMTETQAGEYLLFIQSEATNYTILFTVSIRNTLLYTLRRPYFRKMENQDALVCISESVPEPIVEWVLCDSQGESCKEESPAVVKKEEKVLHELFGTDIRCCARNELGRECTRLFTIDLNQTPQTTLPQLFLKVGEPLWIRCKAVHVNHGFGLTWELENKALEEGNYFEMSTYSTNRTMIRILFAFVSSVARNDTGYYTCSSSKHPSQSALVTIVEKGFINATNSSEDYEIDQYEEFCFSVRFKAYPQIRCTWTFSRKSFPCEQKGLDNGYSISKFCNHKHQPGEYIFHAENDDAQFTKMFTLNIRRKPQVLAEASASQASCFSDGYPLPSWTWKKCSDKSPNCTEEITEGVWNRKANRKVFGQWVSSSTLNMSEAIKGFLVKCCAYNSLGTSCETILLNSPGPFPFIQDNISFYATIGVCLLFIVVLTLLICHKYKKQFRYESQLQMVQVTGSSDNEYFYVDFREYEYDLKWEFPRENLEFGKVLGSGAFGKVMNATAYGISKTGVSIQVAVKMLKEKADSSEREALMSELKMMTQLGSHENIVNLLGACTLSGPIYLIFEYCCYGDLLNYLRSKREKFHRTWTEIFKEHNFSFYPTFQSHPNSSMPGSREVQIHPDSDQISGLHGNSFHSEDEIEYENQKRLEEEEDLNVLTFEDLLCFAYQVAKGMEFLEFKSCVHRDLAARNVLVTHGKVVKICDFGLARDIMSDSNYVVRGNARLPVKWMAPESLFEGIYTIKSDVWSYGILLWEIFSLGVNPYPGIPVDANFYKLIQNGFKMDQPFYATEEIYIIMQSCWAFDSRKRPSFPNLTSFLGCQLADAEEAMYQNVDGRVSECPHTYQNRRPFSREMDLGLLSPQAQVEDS

With `CN(C)CCNc1nc2cc(-c3nnn[nH]3)ccc2c2sccc12`, the IC50 was 10 µM in experiment [1] (HCT-116, read-out: HCT-116 (uM), cell proliferation modulatory activity, HCT-116, first column); greater than 10 µM in experiment [1] (setting [6]); 0.047 µM on recombinant human PIM1 (cell-free); greater than 10 µM in the experiment on K-562 [2]; greater than 10 µM with MV-4-11 [3]. In addition, the inhibition at 0.5 µM on recombinant human PIM1 (cell-free) was determined as 92.9%.

Take `O=C(O)c1ccc2c(c1)nc(Nc1ccccc1)c1ccncc12`: the inhibition at 0.5 µM at recombinant human PIM1 (cell-free) came to 21.9%. Also, the IC50 at recombinant human PIM1 (cell-free) was found to be 1.02 µM; in the experiment on K-562 [2], 4.01 µM; with MV-4-11 [3], 6.45 µM.

As for `CN(C)CCNc1nc2cc(C(=O)O)ccc2c2cnccc12`, on recombinant human PIM1 (cell-free), the inhibition at 0.5 µM is 63.6%. Further, the IC50 at recombinant human PIM1 (cell-free) was 0.242 µM; in the experiment on K-562 [2] it was greater than 10 µM; in the experiment with MV-4-11 [3], greater than 10 µM.

As to `OCc1cccc(Nc2nc3cc(-c4nnn[nH]4)ccc3c3sccc23)c1`, the inhibition at 0.5 µM on recombinant human PIM1 (cell-free) was found to be 87.6%. Besides, the values for the IC50 on recombinant human PIM1 (cell-free), in the experiment with K-562 [2] and in the experiment on MV-4-11 [3] were 0.162 µM, greater than 10 µM and 0.609 µM, respectively.

As to `N#Cc1cccc(Nc2nc3cc(C(=O)O)ccc3c3sccc23)c1`, the inhibition at 0.5 µM at recombinant human PIM1 (cell-free) is 71.4%. In addition, the IC50 at recombinant human PIM1 (cell-free) is 0.213 µM; in the experiment on K-562 [2], greater than 10 µM; in the experiment on MV-4-11 [3], 0.226 µM.

For `OCc1ccc2c(c1)nc(Nc1cccc(Cl)c1)c1ccncc12`, the IC50 in experiment [1] (HCT-116, read-out: HCT-116 (uM), cell proliferation modulatory activity, HCT-116, second HCT-116 column (c8)) amounted to 4.28 µM; in the experiment on MV-4-11 [4] it was 0.529 µM; with K-562 [5], 5.52 µM; on Flt3, 0.013 µM. Further, the inhibition at 0.5 µM at recombinant human PIM1 (cell-free assay) is 4.22%.

With `NC(=O)c1ccc2c(c1)nc(Nc1cccc(C(F)(F)F)c1)c1nc(NC3CC3)ncc12`, at recombinant human PIM1 (cell-free assay), the inhibition at 0.5 µM turned out to be 12.5%. Further, the IC50 with MV-4-11 [4] is 0.149 µM; with K-562 [5], 0.157 µM; on Flt3, 0.343 µM; in the experiment on Jurkat, 1.16 µM.

`CC(C)OC(=O)Nc1ccc2c(c1)nc(Nc1cccc(C(F)(F)F)c1)c1nc(NC3CC3)ncc12`: the inhibition at 0.5 µM at recombinant human PIM1 (cell-free assay) was 10.1%. Besides, the IC50 in the experiment with MV-4-11 [4] is 0.108 µM; in the experiment on K-562 [5], 0.061 µM; on Flt3 it was greater than 0.4 µM; in the experiment on Jurkat it was 1.16 µM.

For `CN(C)C(=O)c1ccc2c(c1)nc(Nc1cccc(Cl)c1)c1ccncc12`, the IC50 in experiment [1] (setting [7]) was 8.17 µM; at recombinant human CK2, greater than 0.75 µM; with MV-4-11 [4] it was greater than 10 µM; in the experiment with K-562 [5] it was greater than 10 µM; on Flt3 it was greater than 0.4 µM; in the experiment with Jurkat it was 1.51 µM. Further, the inhibition at 0.5 µM on recombinant human PIM1 (cell-free assay) amounted to 4.85%.

As for `O=C(NC1CC1)c1ccc2c(c1)nc(Nc1cccc(Cl)c1)c1ccncc12`, the IC50 in experiment [1] (setting [7]) was greater than 10 µM; at recombinant human CK2, 0.487 µM; with MV-4-11 [4], greater than 10 µM; with K-562 [5], greater than 10 µM; at Flt3 it was greater than 0.4 µM; in the experiment on Jurkat, 2.16 µM. Moreover, the inhibition at 0.5 µM at recombinant human PIM1 (cell-free assay) is -5.18%.

Regarding `O=C(NCc1ccncc1)c1ccc2c(c1)nc(Nc1cccc(Cl)c1)c1ccncc12`, the IC50 in experiment [1] (setting [7]) is 2.5 µM; with MV-4-11 [4] it was 0.181 µM; in the experiment on K-562 [5], greater than 10 µM; at Flt3, greater than 0.4 µM. Further, the inhibition at 0.5 µM on recombinant human PIM1 (cell-free assay) was -12.8%.

Consider `O=C(NCCN1CCOCC1)c1ccc2c(c1)nc(Nc1cccc(Cl)c1)c1ccncc12`, for which the IC50 in experiment [1] (setting [7]) was greater than 10 µM; with MV-4-11 [4] it was 0.099 µM; in the experiment on K-562 [5] it was greater than 10 µM; on Flt3 it was greater than 0.4 µM. Moreover, the inhibition at 0.5 µM on recombinant human PIM1 (cell-free assay) was determined as 1.16%.

In the case of `O=C(NCc1ccccn1)c1ccc2c(c1)nc(Nc1cccc(Cl)c1)c1ccncc12`, the IC50 in experiment [1] (setting [7]) was 9.88 µM; with MV-4-11 [4] it was greater than 10 µM; with K-562 [5], greater than 10 µM; on Flt3, 0.289 µM. In addition, the inhibition at 0.5 µM at recombinant human PIM1 (cell-free assay) is -11.1%.

As for `COCCNC(=O)c1ccc2c(c1)nc(Nc1cccc(Cl)c1)c1ccncc12`, the IC50 in [1] (setting [7]) is greater than 10 µM; with MV-4-11 [4], 0.043 µM; with K-562 [5] it was greater than 10 µM; on Flt3, greater than 0.4 µM. The inhibition at 0.5 µM on recombinant human PIM1 (cell-free assay) is -29.7%.

Turning to `O=C(NCc1ccccc1)c1ccc2c(c1)nc(Nc1cccc(Cl)c1)c1ccncc12`, the IC50 in [1] (setting [7]) was greater than 10 µM; in the experiment with MV-4-11 [4], 0.095 µM; with K-562 [5] it was greater than 10 µM; at Flt3, 0.331 µM. The inhibition at 0.5 µM on recombinant human PIM1 (cell-free assay) was -29.4%.

Turning to `CN1CCN(C(=O)c2ccc3c(c2)nc(Nc2cccc(Cl)c2)c2ccncc23)CC1`, the IC50 is greater than 10 µM in experiment [1] (setting [7]), greater than 10 µM in the experiment on MV-4-11 [4], greater than 10 µM in the experiment with K-562 [5] and greater than 0.4 µM at Flt3. Moreover, the inhibition at 0.5 µM on recombinant human PIM1 (cell-free assay) is -28.4%.

`CN1CCCN(C(=O)c2ccc3c(c2)nc(Nc2cccc(Cl)c2)c2ccncc23)CC1`: the IC50 in experiment [1] (setting [7]) was 2.67 µM; in the experiment with MV-4-11 [4], 0.171 µM; in the experiment on K-562 [5] it was greater than 10 µM; at Flt3, greater than 0.4 µM. Besides, the inhibition at 0.5 µM at recombinant human PIM1 (cell-free assay) was -11.8%.

As for `CC(=O)N1CCN(C(=O)c2ccc3c(c2)nc(Nc2cccc(Cl)c2)c2ccncc23)CC1`, the IC50 in experiment [1] (setting [7]) is greater than 10 µM; with MV-4-11 [4] it was greater than 10 µM; in the experiment on K-562 [5], greater than 10 µM; on Flt3, greater than 0.4 µM. Further, on recombinant human PIM1 (cell-free assay), the inhibition at 0.5 µM was -5.01%.

For `O=C(Nc1nccs1)c1ccc2c(c1)nc(Nc1cccc(Cl)c1)c1ccncc12`, the IC50 in experiment [1] (setting [7]) is greater than 10 µM; with MV-4-11 [4] it was greater than 10 µM; in the experiment with K-562 [5], greater than 10 µM; at Flt3, greater than 0.4 µM. The inhibition at 0.5 µM on recombinant human PIM1 (cell-free assay) is -6.62%.

Consider `Cc1cnc(CNC(=O)c2ccc3c(c2)nc(Nc2cccc(Cl)c2)c2ccncc23)cn1`, for which the IC50 in experiment [1] (setting [7]) is greater than 10 µM; in the experiment on MV-4-11 [4] it was greater than 10 µM; in the experiment on K-562 [5], greater than 10 µM; at Flt3, 0.362 µM. Moreover, the inhibition at 0.5 µM on recombinant human PIM1 (cell-free assay) is -19.8%.

Turning to `O=C(c1ccc2c(c1)nc(Nc1cccc(Cl)c1)c1ccncc12)N1CCOCC1`, the IC50 was greater than 10 µM in experiment [1] (setting [7]), greater than 10 µM in the experiment with MV-4-11 [4], greater than 10 µM in the experiment with K-562 [5] and greater than 0.4 µM at Flt3. On recombinant human PIM1 (cell-free assay), the inhibition at 0.5 µM was -14.4%.

Turning to `O=C(NCc1cccnc1)c1ccc2c(c1)nc(Nc1cccc(Cl)c1)c1ccncc12`, the IC50 was greater than 10 µM in experiment [1] (setting [7]), 0.112 µM in the experiment with MV-4-11 [4], greater than 10 µM with K-562 [5] and greater than 0.4 µM on Flt3. In addition, at recombinant human PIM1 (cell-free assay), the inhibition at 0.5 µM is -16.2%.

For the molecule `CC(C)(C)OC(=O)N1CCN(C(=O)c2ccc3c(c2)nc(Nc2cccc(Cl)c2)c2ccncc23)CC1`, the IC50 is 5.97 µM in experiment [1] (setting [7]), greater than 10 µM with MV-4-11 [4], greater than 10 µM with K-562 [5] and greater than 0.4 µM on Flt3. The inhibition at 0.5 µM on recombinant human PIM1 (cell-free assay) is -7.41%.

Consider `NCCNC(=O)c1ccc2c(c1)nc(Nc1cccc(Cl)c1)c1ccncc12`, for which the IC50 in [1] (setting [7]) was 7.22 µM; in the experiment on MV-4-11 [4], greater than 10 µM; with K-562 [5] it was greater than 10 µM; on Flt3 it was greater than 0.4 µM; with Jurkat, 7.67 µM. The inhibition at 0.5 µM at recombinant human PIM1 (cell-free assay) is -19.8%.

Turning to `O=C(O)c1ccc2c(c1)nc(NCCc1cccc(F)c1)c1ccncc12` [drawing 1560], the IC50 is greater than 10 µM in [1] (setting [6]), 0.351 µM at recombinant human PIM1 (cell-free) and greater than 10 µM in the experiment on MV-4-11 [3]. Moreover, on recombinant human PIM1 (cell-free), the inhibition at 0.5 µM was determined as 74%.

Consider `NC(=O)c1ccc2c(c1)nc(Nc1cccc(Cl)c1)c1ccncc12` [drawing 1674], for which the IC50 in experiment [1] (setting [7]) is 2.13 µM; on recombinant human CK2 it was 0.417 µM; with MV-4-11 [4], 0.037 µM; in the experiment with K-562 [5], 1.23 µM; on Flt3, 0.003 µM; in the experiment on Jurkat, 0.91 µM. Further, the inhibition at 0.5 µM is -3.44% on recombinant human PIM1 (cell-free assay) and 91.2% on recombinant human CK2 (500 nM compound, read-out: CK2: % inh 500 nM).

Values taken from patent US8168651B2, “Protein kinase modulators” (Cylene Pharmaceuticals, Inc., priority 2008, dated 2012).
